These results are taken from patent US20230150986A1, “ANTAGONISTS OF THE MUSCARINIC ACETYLCHOLINE RECEPTOR M4” (Vanderbilt University, priority 2019, published 2023).

By IC50 is commonly meant the concentration that gives 50% inhibition.

This assay deals with T1, Human M4 (Homo sapiens, UniProt P08173).
T1 construct: Human or rat M4 cDNA, along with the chimeric G protein Gq,5, were transfected into Chinese hamster ovary (CHO-K1) cells; expressed in transfected cells; host or cells: CHO-K1 (M4/Gqi5/CHO)
T1 sequence (P08173 1-479): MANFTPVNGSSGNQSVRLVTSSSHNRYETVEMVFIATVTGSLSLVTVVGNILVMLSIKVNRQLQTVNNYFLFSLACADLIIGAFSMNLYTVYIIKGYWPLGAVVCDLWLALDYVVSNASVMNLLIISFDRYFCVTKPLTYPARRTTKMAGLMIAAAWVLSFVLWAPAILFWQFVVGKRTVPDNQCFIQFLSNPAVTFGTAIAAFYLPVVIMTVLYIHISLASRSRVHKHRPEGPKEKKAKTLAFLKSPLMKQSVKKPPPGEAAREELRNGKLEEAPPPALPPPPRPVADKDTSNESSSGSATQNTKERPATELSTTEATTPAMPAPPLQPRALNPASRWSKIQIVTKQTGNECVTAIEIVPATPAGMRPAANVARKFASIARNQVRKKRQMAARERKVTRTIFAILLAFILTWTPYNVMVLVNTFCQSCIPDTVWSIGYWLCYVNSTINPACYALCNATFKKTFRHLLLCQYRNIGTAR
Put plainly: mAChR M4 cell-based functional assay (calcium flux, decrease of EC80 acetylcholine response). Conditions: for Human M4 Emin: % ACh maximum at 30 μM; for IC50: CHO-K1 cells with human M4 and Gqi5, EC80 acetylcholine. Put shortly: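 CHO-K1 cells stably co-expressing M4 with chimeric Gqi5, loaded with Fluo-4 AM for 50 min at 37 °C; compounds added as 10-point 1:3 curves, then acetylcholine at EC20 (143 s) and EC80 (268 s). Calcium read by FDSS fluorescence ratio; IC50 from four-parameter fit of decrease in EC80 acetylcholine response.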
In general terms: A change in cytosolic calcium serves as a functional read-out for many receptors and channels.

In the case of `Fc1cc(F)c(F)c(-c2ccc(N[C@H]3C[C@@H]4CN(CC5CC6(COC6)C5)C[C@@H]4C3)nn2)c1` [Compound 68, (3aR,5s,6aS)-2-((2-oxaspiro[3.3]heptan-6-yl)methyl)-N-(6-(2,3,5-trifluorophenyl)pyridazin-3-yl)octahydrocyclopenta[c]pyrrol-5-amine], the “Human M4 Emin” value was determined as 3% and the IC50 amounted to 0.36 nM.

On to `[2H]C([2H])(N1C[C@H]2C[C@H](Nc3ccc(-c4cc(F)cc(F)c4F)nn3)C[C@H]2C1)C1(OC)CCCOC1` (stereo partly drawn) [Compound 48, (3aR,5s,6aS)-2-((3-methoxytetrahydro-2H-pyran-3-yl)methyl-d2)-N-(6-(2,3,5-trifluorophenyl)pyridazin-3-yl)octahydrocyclopenta[c]pyrrol-5-amine], for which the “Human M4 Emin” value came to 2% and the half-maximal inhibitory concentration (IC50) worked out at 184 nM.

As to `Fc1cc(F)c(F)c(-c2ccc(N[C@H]3C[C@@H]4CN(CC5CCCCO5)C[C@@H]4C3)nn2)c1` (single isomer, unassigned) [Compound 26], the “Human M4 Emin” value is recorded as 3% and the IC50 amounted to 1.24 nM.

`[2H]C(C)(C1CCOCC1)N1C[C@H]2C[C@H](Nc3ccc(-c4cc(F)cc(F)c4F)nn3)C[C@H]2C1` (stereo partly drawn) [Compound 12, (3aR,5s,6aS)-2-(1-(tetrahydro-2H-pyran-4-yl)ethyl-1-d)-N-(6-(2,3,5-trifluorophenyl)pyridazin-3-yl)octahydrocyclopenta[c]pyrrol-5-amine]: the “Human M4 Emin” value is on record as 3% and the IC50 was found to be 8.64 nM.

Regarding `Fc1cc(F)c(F)c(-c2ccc(N[C@@H]3C[C@H]4CN(CC5CCOCC5)C[C@H]4[C@@H]3F)nn2)c1` (racemic) [Compound 86, (3aR,4R,5S,6aS)-4-fluoro-2-((tetrahydro-2H-pyran-4-yl)methyl)-N-(6-(2,3,5-trifluorophenyl)pyridazin-3-yl)octahydrocyclopenta[c]pyrrol-5-amine and (3aS,4S,5R,6aR)-4-fluoro-2-((tetrahydro-2H-pyran-4-yl)methyl)-N-(6-(2,3,5-trifluorophenyl)pyridazin-3-yl)octahydrocyclopenta[c]pyrrol-5-amine], the “Human M4 Emin” value amounted to 2% and the half-inhibitory concentration (IC50) stood at 3.1 nM.

Consider `Fc1cc(F)c(F)c(-c2ccc(N[C@H]3C[C@@H]4CN(C[C@H]5[C@@H]6COC[C@@H]65)C[C@@H]4C3)nn2)c1` [Compound 71, (3aR,5s,6aS)-2-(((1R,58,6s)-3-oxabicyclo[3.1.0]hexan-6-yl)methyl)-N-(6-(2,3,5-trifluorophenyl)pyridazin-3-yl)octahydrocyclopenta[c]pyrrol-5-amine], for which the “Human M4 Emin” value was found to be 3% and the IC50 came to 0.47 nM.

Turning to `Fc1cc(F)c(F)c(-c2ccc(N[C@H]3C[C@@H]4CN(CC5CC(F)(F)C5)C[C@@H]4C3)nn2)c1` [Compound 57, (3aR,5s,6aS)-2-((3,3-difluorocyclobutyl)methyl)-N-(6-(2,3,5-trifluorophenyl)pyridazin-3-yl)octahydrocyclopenta[c]pyrrol-5-amine], the “Human M4 Emin” value is 3% and the IC50 worked out at 25 nM.

On to `CC(N1C[C@H]2C[C@H](Nc3ccc(-c4cc(F)cc(F)c4F)nn3)C[C@H]2C1)C1(C)CCOCC1` (stereo partly drawn) [Compound 46, (3aR,5s,6aS)-2-(1-(4-methyltetrahydro-2H-pyran-4-yl)ethyl)-N-(6-(2,3,5-trifluorophenyl)pyridazin-3-yl)octahydrocyclopenta[c]pyrrol-5-amine], for which the “Human M4 Emin” value was 2% and the IC50 came out at 58.9 nM.

`CC1(C)CC(N2C[C@H]3C[C@H](Nc4ccc(-c5cc(F)cc(F)c5F)nn4)C[C@H]3C2)CC(C)(C)O1` [Compound 7, (3aR,5s,6aS)-2-(2,2,6,6-tetramethyltetrahydro-2H-pyran-4-yl)-N-(6-(2,3,5-trifluorophenyl)pyridazin-3-yl)octahydrocyclopenta[c]pyrrol-5-amine]: the “Human M4 Emin” value stood at 4% and the IC50 was 215 nM.

On to `Fc1cc(F)c(F)c(-c2ccc(N[C@H]3C[C@@H]4CN(Cc5cccc(F)c5F)C[C@@H]4C3)nn2)c1` [Compound 90, (3aR,5s,6aS)-2-(2,3-difluorobenzyl)-N-(6-(2,3,5-trifluorophenyl)pyridazin-3-yl)octahydrocyclopenta[c]pyrrol-5-amine], for which the “Human M4 Emin” value came to 10% and the IC50 was found to be 960 nM.

For the molecule `Fc1cc(F)c(F)c(-c2ccc(N[C@H]3C[C@@H]4CN(C[C@H]5CC6CCC5O6)C[C@@H]4C3)nn2)c1` (stereo partly drawn) [Compound 31, (3aR,5s,6aS)-2-(((2R)-7-oxabicyclo[2.2.1]heptan-2-yl)methyl)-N-(6-(2,3,5-trifluorophenyl)pyridazin-3-yl)octahydrocyclopenta[c]pyrrol-5-amine], the “Human M4 Emin” value turned out to be 3% and the IC50 is 1.47 nM.

As for `Cc1ccc(CN2C[C@H]3C[C@H](Nc4ccc(-c5cc(F)cc(F)c5F)nn4)C[C@H]3C2)nc1` [Compound 18, (3aR,5s,6aS)-2-((5-methylpyridin-2-yl)methyl)-N-(6-(2,3,5-trifluorophenyl)pyridazin-3-yl)octahydrocyclopenta[c]pyrrol-5-amine], the “Human M4 Emin” value is on record as 4% and the half-maximal inhibitory concentration (IC50) came to 24.3 nM.

For `Fc1cc(F)c(F)c(-c2ccc(N[C@H]3C[C@@H]4CN(CCC(F)(F)F)C[C@@H]4C3)nn2)c1` [Compound 60, (3aR,5s,6aS)-N-(6-(2,3,5-trifluorophenyl)pyridazin-3-yl)-2-(3,3,3-trifluoropropyl)octahydrocyclopenta[c]pyrrol-5-amine], the “Human M4 Emin” value is recorded as 13% and the IC50 amounted to 810 nM.

With `Fc1cc(F)c(F)c(-c2ccc(N[C@H]3C[C@@H]4CN(CC5CCCCC5)C[C@@H]4C3)nn2)c1` [Compound 3, (3aR,5s,6aS)-2-(cyclohexylmethyl)-N-(6-(2,3,5-trifluorophenyl)pyridazin-3-yl)octahydrocyclopenta[c]pyrrol-5-amine], the “Human M4 Emin” value was 3% and the IC50 came to 57.5 nM.

Consider `[2H]C([2H])([C@@H]1COCCO1)N1C[C@H]2C[C@H](Nc3ccc(-c4cc(F)cc(F)c4F)nn3)C[C@H]2C1` [Compound 42, (3aR,5s,6aS)-2-(((R)-1,4-dioxan-2-yl)methyl-d2)-N-(6-(2,3,5-trifluorophenyl)pyridazin-3-yl)octahydrocyclopenta[c]pyrrol-5-amine], for which the “Human M4 Emin” value is 3% and the half-inhibitory concentration (IC50) turned out to be 35 nM.

Regarding `[2H]C([2H])(C1CC(C)(C)OC(C)(C)C1)N1C[C@H]2C[C@H](Nc3ccc(-c4cc(F)cc(F)c4F)nn3)C[C@H]2C1` [Compound 83, (3aR,5s,6aS)-2-((2,2,6,6-tetramethyltetrahydro-2H-pyran-4-yl)methyl-d2)-N-(6-(2,3,5-trifluorophenyl)pyridazin-3-yl)octahydrocyclopenta[c]pyrrol-5-amine], the “Human M4 Emin” value is on record as 3% and the IC50 came to 56 nM.

Take `O=S1(=O)CCC(CN2C[C@H]3C[C@H](Nc4ccc(-c5cc(F)cc(F)c5F)nn4)C[C@H]3C2)CC1` [Compound 69, 4-(((3aR,5s,6aS)-5-((6-(2,3,5-trifluorophenyl)pyridazin-3-yl)amino)hexahydrocyclopenta[c]pyrrol-2(1H)-yl)methyl)tetrahydro-2H-thiopyran 1,1-dioxide]: the “Human M4 Emin” value amounted to 3% and the IC50 came to 0.9 nM.
